Measured values reported in patent publication US20080194653A1, “Therapeutic Agent For Solid Tumor” (KYOWA HAKKO KOGYO CO., LTD., priority 2005, published 2008).

Assays:
[1] = system: human breast cancer MDA-MB-468 cells; assay: Cell growth inhibition test against breast cancer cells (XTT); type: cell-based; conditions: read-out: GI50 value (concentration of 50% growth inhibition)
Method: (§1) A549 cells (1000 cells/well), SK-OV-3 cells (2000 cells/well), or HCT 116 cells (1000 cells/well) were seeded in each well of 96-well plates (Nunc, catalog No. 167008), and cultured overnight. Test compounds diluted stepwise were added, and the cells were further cultured for 72 hours (final volume: 100 μL/well). Fifty μL XTT labeling mixture of Cell Proliferation Kit II (XTT) (Roche Diagnostics, catalog No. 1465015) was added to each well, and the plates were incubated at 37° C. After 1 to 3 hours, absorbance at 490 nm (reference wavelength: 655 nm) was measured with a plate reader (Molecular Device, SpectraMax 340PC^384). Growth ratios of the cells in the wells treated with the test compounds were calculated based on the growth ratio of the cells in the control well treated with solvent (dimethyl sulfoxide (DMSO)) for 72 hours, which was defined as 100%.
(§2) As cancer cell lines, human pancreatic cancer MIA PaCa-2 cells (JCRB No. 0070), human cervical cancer HeLa cells (ATCC No. CCL-2), human breast cancer MDA-MB-468 cells (ATCC No. HTB-132), human prostate cancer DU 145 cells (ATCC No. HTB-81), human skin cancer SK-MEL-28 cells (ATCC No. HTB-72), human head and neck cancer KB cells (JCRB No. 9027), human renal cancer 786-0 cells (ATCC No. CRL-1932), and human liver cancer Hep G2 cells (ATCC No. HB-8065) were used. The cells were cultured at 37° C. in a 5% carbon dioxide atmosphere (except for the human breast cancer MDA-MB-468 cells, which were cultured under the condition at 37° C.) by using the mediums mentioned below, respectively.
(§3) In the same manner as that in Test Example 1, the cells were seeded (500 to 4000 cells/well, respectively) in each well of 96-well plates (Nunc, catalog No. 167008), and growth ratios of the cells treated with test compounds were calculated. The measurement of absorbance was performed at 1.5 to 3 hours after the addition of the XTT labeling mixture.

[2] = system: human cervical cancer HeLa cells; assay: Cell growth inhibition test against cervical cancer cells (XTT); type: cell-based; conditions: read-out: GI50 value (concentration of 50% growth inhibition)
Method: as §1, §2, §3

[3] = system: human liver cancer Hep G2 cells; assay: Cell growth inhibition test against liver cancer cells (XTT); type: cell-based; conditions: HepG2, read-out: GI50 value (concentration of 50% growth inhibition)
Method: as §1, §2, §3

[4] = system: human colon cancer HCT 116 cells; assay: Cell growth inhibition test against colon cancer cells (XTT); type: cell-based; conditions: read-out: GI50 value (concentration of 50% growth inhibition), 72 hours
Method: (§4) As cancer cell lines, human lung cancer A549 cells (ATCC No. CCL-185), human ovarian cancer SK-OV-3 cells (ATCC No. HTB-77), and human colon cancer HCT 116 cells (ATCC No. CCL-247) were used. For the culture of A549 cells, Nutrient Mixture F-12K medium (Invitrogen, catalog No. 21127-022) containing 10% fetal bovine serum (Invitrogen, catalog No. 10099-141), 100 units/mL penicillin (Invitrogen, catalog No. 15140-122), and 100 μg/mL streptomycin (Invitrogen, catalog No. 15140-122) was used. For the culture of SK-OV-3 cells and HCT 116 cells, McCoy's 5A medium (Invitrogen, catalog No. 16600-082) containing 10% fetal bovine serum (Invitrogen, catalog No. 10099-141), 100 units/mL penicillin (Invitrogen, catalog No. 15140-122), and 100 μg/mL streptomycin (Invitrogen, catalog No. 15140-122) was used. The cells were cultured at 37° C. in a 5% carbon dioxide atmosphere.
as §1

[5] = system: human lung cancer A549 cells; assay: Cell growth inhibition test against lung cancer cells (XTT); type: cell-based; conditions: read-out: GI50 value (concentration of 50% growth inhibition), 72 hours
Method: as §4, §1

[6] = system: human head and neck cancer KB cells; assay: Cell growth inhibition test against head and neck cancer cells (XTT); type: cell-based; conditions: read-out: GI50 value (concentration of 50% growth inhibition)
Method: as §1, §2, §3

[7] = system: human skin cancer SK-MEL-28 cells; assay: Cell growth inhibition test against skin cancer cells (XTT); type: cell-based; conditions: read-out: GI50 value (concentration of 50% growth inhibition)
Method: as §1, §2, §3

[8] = system: human prostate cancer DU 145 cells; assay: Cell growth inhibition test against prostate cancer cells (XTT); type: cell-based; conditions: read-out: GI50 value (concentration of 50% growth inhibition)
Method: as §1, §2, §3

[9] = system: human ovarian cancer SK-OV-3 cells; assay: Cell growth inhibition test against ovarian cancer cells (XTT); type: cell-based; conditions: read-out: GI50 value (concentration of 50% growth inhibition), 72 hours
Method: as §4, §1

[10] = target: T1, recombinant human Eg5 motor domain protein (Homo sapiens, UniProt P52732); assay: Eg5 enzyme inhibition test (ATPase activity); type: biochemical; conditions: for IC50: 30° C., 30 minutes, absorbance at 360 nm, read-out: Inhibition ratios (IC50) on the ATPase activity of Eg5
T1 construct: A plasmid expressing the motor domain of human Eg5 was constructed; made in house; host or cells: Escherichia coli BL21 (DE3)
T1 sequence (P52732 18-359 limits assumed): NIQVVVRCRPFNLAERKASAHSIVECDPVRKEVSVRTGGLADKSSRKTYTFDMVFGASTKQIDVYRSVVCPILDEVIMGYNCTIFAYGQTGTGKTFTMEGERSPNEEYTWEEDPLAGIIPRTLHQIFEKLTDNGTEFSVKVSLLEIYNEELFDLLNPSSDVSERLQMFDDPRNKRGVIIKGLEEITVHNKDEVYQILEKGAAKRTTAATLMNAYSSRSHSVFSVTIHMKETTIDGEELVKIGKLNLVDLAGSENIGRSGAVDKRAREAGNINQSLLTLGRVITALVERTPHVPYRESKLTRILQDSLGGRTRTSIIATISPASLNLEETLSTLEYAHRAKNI
Method: A recombinant human Eg5 motor domain protein was prepared by referring to the literature [Biochemistry, Vol. 35, p. […] A plasmid expressing the motor domain of human Eg5 was constructed, and transformed into Escherichia coli BL21 (DE3). The transformant was cultured at 25° C., and when the OD600 reached 0.74, isopropyl-β-D-thiogalactoside was added at a final concentration of 0.5 mmol/L. The transformant was further cultured for 4 hours, and then the culture medium was centrifuged to collect the cells. The cells were suspended in a buffer and ultrasonicated, and then the sonicated solution was centrifuged to recover the supernatant. The supernatant was purified by cation exchange column chromatography to obtain a partially purified sample. Furthermore, the partially purified sample was purified by gel filtration column chromatography to obtain a finally purified sample.
Measurement of the ATPase activity of Eg5 was carried out by referring to the literatures [EMBO Journal, Vol. 13, p. […] Solution A was dispensed into each well of a 96-well plate as 45 μL portions. Solution B was used to serially dilute a test compound. The diluted test compound solutions in a volume of 30 μL were mixed with Solution A added beforehand in each well of the 96-well plate to start the enzymatic reaction. The enzymatic reaction was performed at 30° C. for 30 minutes. […] The relative activity was calculated to calculate IC50 value.

[11] = system: human pancreatic cancer MIA PaCa-2 cells; assay: Cell growth inhibition test against pancreatic cancer cells (XTT); type: cell-based; conditions: read-out: GI50 value (concentration of 50% growth inhibition)
Method: as §1, §2, §3

[12] = system: human renal cancer 786-0 cells; assay: Cell growth inhibition test against renal cancer cells (XTT); type: cell-based; conditions: read-out: GI50 value (concentration of 50% growth inhibition)
Method: as §1, §2, §3

| SMILES | GI50 [1] | GI50 [2] | GI50 [3] | GI50 [4] | GI50 [5] | GI50 [6] | GI50 [7] | GI50 [8] | GI50 [9] | Inhibition of the ATPase activity of Eg5 (in words) [10] | IC50 [10] | GI50 [11] | GI50 [12] | melting point |
| --- | --- | --- | --- | --- | --- | --- | --- | --- | --- | --- | --- | --- | --- | --- |
| CC(C)(C)C(=O)NC1=NN(C(=O)C(C)(C)C)C(CCCC(=O)NCCO)(c2ccccc2)S1 (single isomer, unassigned) [Compound o, 4-[3-(2,2-Dimethylpropionyl)-5-(2,2-dimethylpropionylamino)-2-phenyl-2,3-dihydro-1,3,4-thiadiazol-2-yl]-N-(2-hydroxyethyl)butanamide] | < 10 µM | < 10 µM | < 10 µM | < 0.1 µM | < 10 µM | < 10 µM | < 10 µM | < 10 µM | < 10 µM | inhibited the ATPase activity of Eg5 in a concentration-dependent manner | < 0.1 µM | < 10 µM | < 10 µM | – |
| CC(C)(C)C(=O)NC1=NN(C(=O)C(C)(C)C)C(CCNS(C)(=O)=O)(c2ccccc2)S1 (single isomer, unassigned; (-)) [Compound a, (−)-N-[4-(2,2-Dimethylpropionyl)-5-(2-methanesulfonylaminoethyl)-5-phenyl-4,5-dihydro-1,3,4-thiadiazol-2-yl]-2,2-dimethylpropanamide] | < 10 µM | < 10 µM | < 10 µM | < 0.1 µM | < 10 µM | < 10 µM | < 10 µM | < 10 µM | < 10 µM | inhibited the ATPase activity of Eg5 in a concentration-dependent manner | < 0.1 µM | < 10 µM | < 10 µM | 204 to 206 °C |
| CC(C)C(=O)N1N=C(NC(=O)C(C)(C)C)SC1(CCNS(C)(=O)=O)c1ccccc1 (single isomer, unassigned; (-)) [Compound d, (−)-N-[4-Isobutyryl-5-(2-methanesulfonylaminoethyl)-5-phenyl-4,5-dihydro-1,3,4-thiadiazol-2-yl]-2,2-dimethylpropanamide] | < 10 µM | < 10 µM | < 10 µM | < 0.1 µM | < 10 µM | < 10 µM | < 10 µM | < 10 µM | < 10 µM | inhibited the ATPase activity of Eg5 in a concentration-dependent manner | < 0.1 µM | < 10 µM | < 10 µM | – |
| CCC(=O)N1N=C(N2CCCC2=O)SC1(CCNS(C)(=O)=O)c1ccccc1 (single isomer, unassigned; (-)) [Compound e, (−)-N-{2-[5-(2-Oxopyrrolidin-1-yl)-2-phenyl-3-propionyl-2,3-dihydro-1,3,4-thiadiazol-2-yl]ethyl}methanesulfonamide] | < 10 µM | < 10 µM | < 10 µM | < 0.1 µM | < 10 µM | < 10 µM | < 10 µM | < 10 µM | < 10 µM | inhibited the ATPase activity of Eg5 in a concentration-dependent manner | < 0.1 µM | < 10 µM | < 10 µM | 188 to 191 °C |
| CN(C)CCS(=O)(=O)NCC1(c2ccccc2)SC(NC(=O)C(C)(C)C)=NN1C(=O)C(C)(C)C (single isomer, unassigned; (-)) [Compound m, (−)-N-[5-(2-Dimethylaminoethanesulfonylaminomethyl)-4-(2,2-dimethyl-propionyl)-5-phenyl-4,5-dihydro-1,3,4-thiadiazol-2-yl]-2,2-dimethylpropanamide] | < 10 µM | < 10 µM | < 10 µM | < 0.1 µM | < 10 µM | < 10 µM | < 10 µM | < 10 µM | < 10 µM | – | – | < 10 µM | < 10 µM | 101 to 104 °C |
| CN(C)CCCS(=O)(=O)NCC1(c2ccccc2)SC(NC(=O)C(C)(C)C)=NN1C(=O)C(C)(C)C (single isomer, unassigned; (-)) [Compound n, (−)-N-[5-(3-Dimethylaminopropanesulfonylaminomethyl)-4-(2,2-dimethylpropionyl)-5-phenyl-4,5-dihydro-1,3,4-thiadiazol-2-yl]-2,2-dimethyl-propanamide] | < 10 µM | < 10 µM | < 10 µM | < 0.1 µM | < 10 µM | < 10 µM | < 10 µM | < 10 µM | < 10 µM | – | – | < 10 µM | < 10 µM | 92 to 95 °C |
